Data taken from publication PMC9888480, “Carboranyl-1,8-naphthalimide intercalators induce lysosomal membrane permeabilization and ferroptosis in cancer cell lines” (Journal of Enzyme Inhibition and Medicinal Chemistry, 2023).
Where two headings read alike, the source gives them in different places.

Experiments:
[1] = system: ct-DNA; experiment: Melting temperature (Tm) measurements of ct-DNA; type: binding, calf; conditions: r = [compound]/[ct-DNA] = 0.3, cacodylate buffer pH 7.0; Tm of free ct-DNA 74 °C; error ±0.5 °C
Experimental: The measurements were carried out by adding aliquots of DMSO stock solution of the tested compounds to the buffer solution (pH 7.0, 20 mM, cacodylate buffer, DMSO content of the final solution = 0.33–0.39%). Tm curves were collected at r = 0.3 (r = [compound]/[ct-DNA]) to assure the dominant binding mode. Thermal melting curves were plotted considering the absorption change at 260 nm as a function of temperature using a GBC Cintra10 UV–VIS spectrometer (Dandenong, Australia) equipped with a GBC Thermocell Peltier Power Supply (Dandenong, Australia) with the use of a 1-cm-path-length cell. The absorbance of the samples was monitored at 260 nm from 35 to 95 °C with a heating rate of 1 °C/min. Tm values are the midpoints or the transition curves determined from the maximum of the first derivative. ΔTm values were calculated by subtracting the Tm of the free nucleic acid from the Tm of the sample. All ΔTm values reported in the study were measured in triplicate. The error in ΔTm was ±0.5 °C.

[2] = system: ct-DNA; experiment: UV–vis spectra titration with ct-DNA (binding constant Kb); parameters: species or system calf; conditions: for Kb compared to that of mitonafide: mitonafide Kb 2.54 × 10^5
Experimental: The measurements were performed by adding aliquots of DMSO stock solution of the tested compounds to the buffer solution (pH 7.4, 20 mM, 50 mM NaCl, Tris–HCl buffer, DMSO content of the final solutions = 0.54–0.65%) to the final concentration 10 µM. The tested compounds were incubated for 5 min, with increasing concentrations ranging from 0 to 15 µM of ct-DNA at 37 °C. Then, the UV–vis absorption spectra between 300 and 500 nm were recorded using a GBC Cintra10 UV–VIS spectrometer equipped with a GBC Thermocell Peltier Power Supply with the use of a 1-cm-path-length cell. The binding constant was calculated according to the following equation[70]: A0/A−A0= εG/εH−G−εG+ εG/εH−G−εG × 1/Kb[DNA] where Kb is the binding constant; A0 and a are absorbances of the free tested compound and the apparent one; εG and εH–G are their coefficient, respectively; [DNA] is the concentration of DNA in base pairs. The slope to intercept ratio of the plot between A0/A − A0 and 1/[DNA] yielded the binding constant.

[3] = system: ct-DNA; experiment: Circular dichroism (CD) measurements of ct-DNA; type: binding, calf; conditions: increasing concentration of conjugate, r = 0.1–0.5, cacodylate buffer pH 7.0
Experimental: The measurements were performed by adding aliquots of DMSO stock solution of the tested compounds to the buffer solution (pH 7.0, 20 mM, cacodylate buffer, DMSO content of the final solutions = 0.22–1.30%). Changes in the CD spectrum of ct-DNA upon the addition of compound were measured at different molar ratios r = [compound]/[ct-DNA]. CD spectra were recorded on a JASCO J-815 CD spectrometer with a JASCO PFD-425S Peltier thermostated cell holder (JASCO, Tokyo, Japan) by using a square quartz cuvette of path length 0.5 cm (0.5 ml) in the 230–400 nm region. The CD profiles reported were an average of three successive scans with a scan time of 200 nm per minute and an appropriately corrected baseline. Temperature was maintained at 20 °C during the experiment.

[4] = system: HepG2; experiment: In vitro cytotoxic activity, MTT assay; type: cell-based, human; conditions: concentration required to inhibit cell growth by 50%
Description: The in vitro cytotoxic activity of the obtained carborane-1,8-naphthalimide conjugates was investigated by examining their cytotoxic effects using the MTT (3–(4,5-dimethylthiazol-2-yl)-2,5-diphenyltetrazolium bromide) dye assay[38]^,[39] against the human cancer cell line HepG2 established from hepatocellular carcinoma (for compounds 12–19 and 30–37) and against human lung fibroblasts (MRC-5) (for compounds 34–37). The IC50 values—the drug concentration (µM) required to inhibit cell growth by 50%—determined for the synthesised compounds are summarised in Table 2.
The cytotoxic properties of the synthesised compounds were evaluated using the human hepatocellular carcinoma cell line (HepG2) and human lung fibroblasts (MRC-5). The HepG2 and MRC-5 cell lines were purchased from American Type Culture Collection (ATCC, Manassas, VA, USA). The HepG2 cells were propagated in Eagle’s minimal essential medium (EMEM, ATCC, Manassas, VA, USA), supplemented with 10% inactivated foetal bovine serum (FBS, Life Technologies, Warsaw, Poland) and 100 units/ml penicillin G with […] streptomycin (Life Technologies, Warsaw, Poland). The cells were incubated at 37 °C in a humidified atmosphere containing 5% CO2. Upon reaching 80–90% confluency, the cells were harvested with 0.25% trypsin in 1 mM EDTA (Life Technologies, Warsaw, Poland) and transferred to 96-well microplates at 2 × 10^4 cells/well. After overnight incubation of cells at 37 °C in a humidified atmosphere containing 5% CO2, the culture medium was removed and replaced with a freshly prepared solution of compounds in the culture medium or medium itself as the control group. The stock solutions of each compound were prepared in DMSO at a concentration of 100 mM and were diluted with the growth medium supplemented with 10% FBS to ensure drug dissolution to obtain concentrations ranging from 0.1 to 1000 µM. Cytotoxicity was evaluated using the MTT assay. After incubation with the compounds, the cells were treated with MTT dye solution (5 mg/ml) for 2 h and lysed with a solvent solution containing DMF (45 ml), sodium dodecylsulfate (13.5 g), and distilled water (55 ml). After overnight incubation at 37 °C, optical density at 550 nm, with a reference wavelength of 670 nm, was measured in an ELISA reader (VarioskanLux, Thermo Scientific, Waltham, MA, USA). All determinations were carried out in triplicate. Results were calculated as the percentage of control group viability. The IC50 values of the compounds were calculated in an Excel add-in ED50V10.

[5] = system: ct-DNA; parameters: method as in PMID 33803403; conditions: unmodified mitonafide and pinafide; cited from earlier work
[6] = system: HepG2; parameters: method as in PMID 31776032; conditions: footnote of Table 2, reference compounds; cited from earlier work
[7] = target: human topoisomerase IIα; parameters: method as in PMID 35562989; conditions: earlier study of 4-carboranyl-1,8-naphthalimides; read-out: anti-Topo II activity IC50; cited from earlier work
[8] = system: HepG2 cells; parameters: method as in PMID 31776032; conditions: earlier N-imide derivatives; cited from earlier work

Row | Molecule | ΔTm ct-DNA [1] | Kb compared to that of mitonafide [2] | change in the CD spectra of ct-DNA [3] | IC50 [4] | other results
1 | 4-[(2-[3–(1,2-Dicarba-closo-dodecaborane-1-yl)propanamido]ethyl)amino]-3-nitro-N-[2-(N-pyrrolidinyl)ethyl]-1,8-naphthalimide [Compound 14] | 3.33 °C | similar | disturbed | 8.97 ± 1.13 µM | –
2 | 4-[(2-[3–(1,2-Dicarba-closo-dodecaborane-1-yl)propanamido]ethyl)amino]-N-[2-(dimethylamino)ethyl]-3-nitro-1,8-naphthalimide [Compound 12] | 3.33 °C | similar | did not cause any appreciable change | 21.7 ± 0.95 µM | –
3 | 4-[(2-[3–(1,7-Dicarba-closo-dodecaborane-1-yl)propanamido]ethyl)amino]-3-nitro-N-[2-(N-pyrrolidinyl)ethyl]-1,8-naphthalimide [Compound 15] | 5.00 °C | similar | disturbed | 9.23 ± 0.35 µM | –
4 | 4-[(2-[3–(1,7-Dicarba-closo-dodecaborane-1-yl)propanamido]ethyl)amino]-N-[2-(dimethylamino)ethyl]-3-nitro-1,8-naphthalimide [Compound 13] | 3.67 °C | – | did not cause any appreciable change | 9.2 ± 0.68 µM | –
5 | 4-[(2-[(1,2-Dicarba-closo-dodecaborane-1-yl)ethylamino]ethyl)amino]-3-nitro-N-[2-(N-pyrrolidinyl)ethyl]-1,8-naphthalimide [Compound 32] | 0.33 °C | approximately 1.5 fold | disturbed | 8.12 ± 0.88 µM | –
6 | 4-[(2-[(1,2-Dicarba-closo-dodecaborane-1-yl)ethylamino]ethyl)amino]-N-[2-(dimethylamino)ethyl]-3-nitro-1,8-naphthalimide [Compound 30] | 3.33 °C | – | disturbed | 4.51 ± 0.66 µM | –
7 | 4-[(2-[(1,7-Dicarba-closo-dodecaborane-1-yl)ethylamino]ethyl)amino]-3-nitro-N-[2-(N-pyrrolidinyl)ethyl]-1,8-naphthalimide [Compound 33] | 0.33 °C | – | did not cause any appreciable change | 20.6 ± 3.83 µM | changes in the absorbance on addition of ct-DNA ([2]; UV–vis, 1.25–15 µM ct-DNA, 10 µM compound): changes in the absorbance were not observed
8 | 4-[(2-[(1,7-Dicarba-closo-dodecaborane-1-yl)ethylamino]ethyl)amino]-N-[2-(dimethylamino)ethyl]-3-nitro-1,8-naphthalimide [Compound 31] | 1.67 °C | similar | did not cause any appreciable change | 11.6 ± 0.62 µM | bathochromic effect ([2]; UV–vis, addition of 1.25–15 µM ct-DNA to 10 µM compound): 6 nm
9 | 4-[(6-[3–(1,2-Dicarba-closo-dodecaborane-1-yl)propanamido]hexyl)amino]-3-nitro-N-[2-(N-pyrrolidinyl)ethyl]-1,8-naphthalimide [Compound 18] | – | approximately 1.5 fold | – | 4.79 ± 0.8 µM | –
10 | 4-[(6-[3–(1,2-Dicarba-closo-dodecaborane-1-yl)propanamido]hexyl)amino]-N-[2-(dimethylamino)ethyl]-3-nitro-1,8-naphthalimide [Compound 16] | – | approximately 1.5 fold | – | 5.12 ± 0.87 µM | –
11 | 4-[(6-[3–(1,7-Dicarba-closo-dodecaborane-1-yl)propanamido]hexyl)amino]-3-nitro-N-[2-(N-pyrrolidinyl)ethyl]-1,8-naphthalimide [Compound 19] | – | – | – | 5.86 ± 0.56 µM | –
12 | 4-[(6-[3–(1,7-Dicarba-closo-dodecaborane-1-yl)propanamido]hexyl)amino]-N-[2-(dimethylamino)ethyl]-3-nitro-1,8-naphthalimide [Compound 17] | – | similar | – | 8.03 ± 1.25 µM | –
13 | CN(C)CCN1C(=O)c2cccc3cc([N+](=O)[O-])cc(c23)C1=O [mitonafide] | – | – | – | – | ΔTm [5]: 5.17 °C; IC50 [6]: < 1 µM; IC50 [7]: 5.13 µM
14 | O=C1c2cccc3cc([N+](=O)[O-])cc(c23)C(=O)N1CCN1CCCC1 [pinafide] | – | – | – | – | ΔTm [5]: 6.50 °C; IC50 [6]: 1.23 µM
15 | N-[2-(N-pyrrolidinyl)ethyl]-4-[(2–(3–(1,2-dicarba-closo-dodecaborane-1-yl)propanamido)ethyl)amino]-1,8-naphthalimide | – | – | – | – | IC50 [7]: 2.81 µM
16 | N-[2-(dimethylamino)ethyl]-4-{1-[3-(1,2-dicarba-closo-dodecaborane-1-yl)propyl]-1H-1,2,3-triazol-4-yl}-1,8-naphthalimide | – | – | – | – | IC50 [7]: 0.58 µM
17 | N-[2–(3,3′-commo-bis(1,2-dicarba-3-cobalta(III)-closo-dodecaborate-1-yl)ethyl)]-1,8-naphthalimide | – | – | – | – | intracellular ROS production (fluorescence intensity) [8]: approximately twofold increase
18 | N-[3–(1,2-dicarba-closo-dodecaborane-1-yl)propyl]-1,8-naphthalimide | – | – | – | – | intracellular ROS production (fluorescence intensity) [8]: approximately twofold increase
19 | N-{[2–(3,3′-commo-bis(1,2-dicarba-3-cobalta(III)-closo-dodecaborate-1-yl)ethyl]-1′-aminoethyl)}-1,8-naphthalimide] | – | – | – | – | intracellular ROS production (fluorescence intensity) [8]: approximately twofold increase
